In the NIST ThermoML archive (doi:10.1016/j.jct.2009.08.002):
Numbers after ± are expanded uncertainties.

Assays:
[1] = molar heat capacity at constant pressure; xn = mol fraction of the nth substance listed; settings: Liquid, Large sample (1 g) DSC, x2 = 0
[2] = molar heat capacity at constant pressure; settings: 298.15 K; 101.33 kPa; Liquid; Large sample (1 g) DSC

| Structure (SMILES) | molar heat capacity at constant pressure ([1]; 283.15 K) [J/K/mol] | molar heat capacity at constant pressure ([1]; 288.15 K) [J/K/mol] | molar heat capacity at constant pressure ([1]; 293.15 K) [J/K/mol] | molar heat capacity at constant pressure ([1]; 298.15 K) [J/K/mol] | molar heat capacity at constant pressure ([1]; 303.15 K) [J/K/mol] | molar heat capacity at constant pressure ([1]; 308.15 K) [J/K/mol] | molar heat capacity at constant pressure ([1]; 313.15 K) [J/K/mol] | molar heat capacity at constant pressure ([1]; 318.15 K) [J/K/mol] | molar heat capacity at constant pressure ([1]; 323.15 K) [J/K/mol] | molar heat capacity at constant pressure [2] [J/K/mol] |
| --- | --- | --- | --- | --- | --- | --- | --- | --- | --- | --- |
| CC#N [acetonitrile] + CCCCCCCC[n+]1ccn(C)c1.F[B-](F)(F)F | 90.03 ± 1.4 | 90.3 ± 1.4 | 90.6 ± 1.4 | 90.93 ± 1.4 | 91.28 ± 1.4 | 91.66 ± 1.4 | 92.07 ± 1.4 | 92.5 ± 1.4 | 92.96 ± 1.4 |  |
| CC#N [acetonitrile] + CCCCCCn1cc[n+](C)c1.F[B-](F)(F)F | 90.03 ± 1.4 | 90.3 ± 1.4 | 90.6 ± 1.4 | 90.93 ± 1.4 | 91.28 ± 1.4 | 91.66 ± 1.4 | 92.07 ± 1.4 | 92.5 ± 1.4 | 92.96 ± 1.4 |  |
| CCCCCCn1cc[n+](C)c1.F[B-](F)(F)F [1-hexyl-3-methylimidazolium tetrafluoroborate] |  |  |  |  |  |  |  |  |  | 432 ± 8 |
| CCCCCCCC[n+]1ccn(C)c1.F[B-](F)(F)F [1-methyl-3-octylimidazolium tetrafluoroborate] |  |  |  |  |  |  |  |  |  | 498.3 ± 11 |
| CC#N [acetonitrile] |  |  |  |  |  |  |  |  |  | 90.93 ± 1.4 |
